The values that follow are results of earlier work, collected in patent US9795715B2, “Bone tissue engineering by ex vivo stem cells ongrowth into three-dimensional trabecular metal” (Zimmer Trabecular Metal Technology, Inc., priority 2004, dated 2017).

The data set has as its system porcine embryos. As to conditions: 0.5 mg/mL.

On to hyaluronan, for which the “development of porcine embryos in culture” value is “increase the development of porcine embryos”.
